Assay results from patent US20090088329A1, “MULTICOMPONENT PROTEIN MICROARRAYS” (priority 2002, published 2009).
Where a name gives a salt, the structure may show the parent alone.

Columns and labels:
[1] = biological target: rhodamine-labelled calmodulin (CaM)/rhodamine-labelled melittin complex (Homo sapiens, UniProt P0DP23); assay: Calmodulin-melittin sol-gel microarray, rhodamine self-quenching fluorescence; type: binding; conditions: for effect on CaM-melittin complex / fluorescence intensity: addition to array, 20:1 molar ratio to CaM for guanidine hydrochloride
Description: A third system involving protein-peptide interactions consisted of rhodamine-labelled calmodulin (CaM) and rhodamine-labelled mellitin, and was based on a slightly different fluorescence-based screening method utilizing these same biomolecules entrapped in sol-gel derived monoliths. In the absence of antagonists or denaturants (such as guanidine hydrochloride), these two species exist in a complex that brings the two rhodamine labels into close proximity, resulting in self-quenching and thus a low fluorescence signal.
Another example of a sol-gel derived microarray involving a protein-peptide interaction has been developed consisting of rhodamine-labelled calmodulin (CaM) and rhodamine-labelled melittin co-entrapped in a sodium silicate derived sol-gel. In the absence of antagonists, these two species exist in a complex that brings the two rhodamine labels into close proximity, resulting in a self-quenching dimer and thus a low fluorescence signal.
Columns 1 & 5 contain the protein-protein interaction between CaM and Mellitin. Both of which are labelled with rhodamine. Columns 2 & 4 are blank and contain only buffer. Column 3 contains CaM—Rhodamine alone and acts as a positive control. Upon addition of GdHCl (2M) to the top of the array and imaging every 20 s, the CaM-Mel columns increased in fluorescence over 2-fold (Panel B), while the positive control increased slightly initially but reached a relatively low steady-state value quickly (see graph, FIG. 7)

[2] = biological target: T1, Urease (type IX from Jack Beans) (Canavalia ensiformis, UniProt P07374); assay: biochemical; type: biochemical; conditions: for Km / kcat: Urease/FD; for kcat: pH 5.1; for Ki: 20 mM urea
T1 construct: purchased Sigma (St. Louis, Mo.) type IX
T1 sequence (P07374 whole entry, looked up): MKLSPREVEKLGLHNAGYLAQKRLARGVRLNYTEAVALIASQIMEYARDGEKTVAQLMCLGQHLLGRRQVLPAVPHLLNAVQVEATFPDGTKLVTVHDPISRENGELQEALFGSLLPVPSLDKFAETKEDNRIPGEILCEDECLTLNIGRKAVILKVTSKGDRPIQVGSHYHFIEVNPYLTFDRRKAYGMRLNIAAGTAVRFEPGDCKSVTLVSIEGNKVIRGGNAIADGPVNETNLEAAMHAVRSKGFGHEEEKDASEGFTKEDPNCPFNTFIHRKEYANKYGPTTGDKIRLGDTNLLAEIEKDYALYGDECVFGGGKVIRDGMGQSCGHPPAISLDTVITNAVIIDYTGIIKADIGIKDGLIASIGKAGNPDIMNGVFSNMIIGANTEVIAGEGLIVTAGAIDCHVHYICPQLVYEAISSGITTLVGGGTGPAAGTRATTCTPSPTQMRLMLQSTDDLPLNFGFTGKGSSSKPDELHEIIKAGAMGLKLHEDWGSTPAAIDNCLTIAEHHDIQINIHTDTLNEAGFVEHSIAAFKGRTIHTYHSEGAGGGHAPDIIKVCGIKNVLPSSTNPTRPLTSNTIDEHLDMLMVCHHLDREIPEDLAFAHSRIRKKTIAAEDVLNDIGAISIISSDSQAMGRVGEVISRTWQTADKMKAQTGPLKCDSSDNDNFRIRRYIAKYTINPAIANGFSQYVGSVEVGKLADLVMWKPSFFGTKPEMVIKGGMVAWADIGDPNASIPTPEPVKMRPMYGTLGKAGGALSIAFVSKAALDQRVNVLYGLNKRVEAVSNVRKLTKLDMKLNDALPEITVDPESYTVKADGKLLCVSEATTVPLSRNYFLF
Method: Preparation of Spotting Solutions: GOx and HRP were dissolved at concentration of 0.4 mg.mL^−1 (250 units.mg^−1) and 0.01 mg.mL^−1 (1000 units.mg^−1), respectively, in 50 mM sodium phosphate buffer, pH 7.4 to form the protein stock solutions. The Amplex Red reagent was made up to a stock concentration of 10 mM. Urease and fluorescein dextran were dissolved at concentrations of 2 mg.mL^−1 (35,400 units.g^−1) and 25 μM, respectively, in 50 mM Tris buffer containing 50 mM NaCl, pH 8 to form their respective stock solutions. GOx/HRP assay samples were prepared to a total volume of 50 μL by mixing 3 μL of each of the GOx and HRP stock solutions, 39 μL of sodium phosphate buffer and 5 μL of the Amplex Red dye solution. Negative and blank control samples were prepared in the same way except that phosphate buffer replaced the missing reagent. Positive control samples contained GOx and HRP as well as 15 μL of 100 μM D-glucose (in buffer) and only 24 μL of buffer. […] Similarly, the blank and positive control samples replaced the missing reagents with Tris buffer while the enzyme selectivity control was obtained by replacing urease with AChE (0.01 mg.mL^−1) in Tris buffer.
Enzyme Assays All enzyme assays and inhibition studies were performed in 96 well plates using a TECAN Safire absorbance/fluorescence platereader operated in fluorescence mode, or on the microarray using time-dependent fluorescence intensity measurements. The enzymatic activity of free and entrapped GOx in 96 well plates was measured by adding 50 μL of a solution containing varying concentrations of glucose to the microtiter well and monitoring of the fluorescence emission at 590 nm for 20 minutes (in solution) or 45 minutes (for entrapped GOx) with excitation at 573 nm. For microarrays, 20 μL of a glucose solution was added to the top of the array, left for 20 seconds and then removed by gently blowing air over the surface, followed by monitoring of fluorescence emission over time. […] Images were acquired before the addition of glucose and then every 30 seconds for 30 minutes after the introduction of glucose using a 30 second integration time per image. For urease, activity and inhibition were measured by adding 100 μL of a solution containing a constant amount of urea (20 mM) in the presence of varying amounts of thiourea (0-100 mM) to the microtiter well and the fluorescence emission of the fluorescein dextran was monitored at 520 nm for 15 minutes (solution) or 45 minutes (entrapped). Microarrays containing urease and fluorescein dextran were first imaged after washing with distilled deionized water (ddH2O, pH 5.1) to provide a constant baseline intensity response. Following this, 20 μL of a urea/thiourea solution was added to the top of the array, which was then covered with a coverslip to minimize solvent evaporation. The emission intensity of fluorescein dextran was measured every 20 seconds for 10 minutes using a 10 second integration time per image following the addition of the urea solution to the array. All samples were tested within 24 hours of being prepared.
For both enzymes studied the initial rate of change in fluorescence intensity was converted to a change in product concentration with time using calibration curves relating the emission intensity of fluorescein to the concentration of ammonium carbonate (for urease) or hydrogen peroxide (for GOx). The Michaelis constants (KM) and catalytic rate constants (kcat) for the enzymes were calculated by generating either double reciprocal (Lineweaver-Burk) plots relating (initial rate of product formation)^−1 to (substrate concentration)^−1 or Hanes-Wolff plots, and fitting these to a linear model. Inhibition constants (KI) for urease were calculated by assessing the changes in the initial rate values for the enzyme in the presence of varying levels of inhibitor, according to the equation: […]

urease = urease (Canavalia ensiformis, UniProt P07374); conditions: cited from earlier work
Chain of urease (P07374 whole entry, looked up): as above

[3] = entrapped enzyme in platereader

With `N=C(N)N` [guanidine hydrochloride] the “increase in fluorescence of CaM-Mel columns” value ([1]; GdHCl 2M added to top of array, imaging every 20 s) was “over 2 fold” and the “effect on CaM-melittin complex / fluorescence intensity” value [1] was “the complex was dissociated”.

Molecule `NC(N)=O` [urea] has a Km [2, 3] of 2350 ± 30 µM, a kcat [2, 3] of 1.33 ± 0.02 s⁻¹ and a Km ([2]; sol-gel microarray) of 1900 ± 100 µM. For the same molecule, the kcat ([2]; sol-gel microarray) was 1.1 ± 0.1 s⁻¹, the Km ([2]; solution, platereader) was 1300 ± 200 µM and the kcat ([2]; solution, platereader) was 78 ± 2 s⁻¹. For the same molecule, the “kcat of entrapped protein lower than in solution” value ([2]; urease, entrapped vs solution) was “up to 70 fold” and the Km (urease; urease, literature) was 2900 µM.

With `N=C(N)c1ccccc1` [benzamidine] the “effect on CaM-melittin complex / fluorescence intensity” value [1] was “no changes in intensity above that obtained for CaM alone”.

In the case of `NC(N)=S` [thiourea], the Ki ([2]; urease entrapped in bulk sodium silicate glass, platereader) is given as 54 ± 2 mM, the Ki ([2]; urease sol-gel microarray) is given as 62 ± 7 mM and the Ki (urease; urease in solution, literature range, different pH values (5.5 to 8)) is given as 48 to 85 mM.
